Patent publication US6160087A, “Peptides having an amino acid sequence from the fimbrial protein of porphyromonas gingivalis and their uses” (priority 1993, dated 2000)
Where no end group is shown, it is not given here.

How the values were obtained:
[1] = tested on: anti-Porphyomonas gingivalis fimbria antibodies contained in sera of patients with periodontal disease; test: Assay of the specific antibody in serum using plates coated with peptide-modified BSA (ELISA); type: binding, human; details: average absorbance (405 nm) of 3 specimens, serum diluted 100 times
Experimental: One mg of each peptide synthesized in Example 2 was dissolved in 1 ml of 0.1 M phosphate buffered saline (PBS, pH 6.0), 5 mg of sulfated SMCC (made by Pierce Co.) was added, and the mixture was incubated at 30° C. for 30 minutes to conduct maleimidization, and then subjected to Sephadex G-10 column chromatography, and the first eluate fraction was collected. 7 mg of bovine serum albumin (BSA: made by Wako Pure Chemical Industries, Ltd.) was dissolved in 1 ml of 0.1 M phosphate buffer (pH 6.0), 10 mM EDTA, the solution was mixed with the above maleimidized peptide, and the mixture was subjected to reaction at 30° C. for 1 hour. The resultant peptide-modified BSA was subjected to Sephadex G-50 column chromatography, and the first eluate fraction was collected as a plate-preparing antigen solution.
Then, six kind of peptides were synthesized after the process of Example 2, and a plate-preparing antigen solution was similarly prepared as a control.
Each of the resultant antigen solutions was diluted with 0.1 M carbonate buffer (pH 9.6), 150 mM NaCl to give 100 ml of a solution. 10 μl/well of the solution was put in a polystyrene-made microtiter plate (Immunoplate II; maxisorp type; made by Nunc Co.) and left alone at 4° C. overnight, and washing was conducted three times each with 200 μl/well of PBS, using a microtiter automatic washer (hereafter abbreviated as washer; made by Bio-Rad Laboratories). 250 μl/well of PBS containing 0.1% gelatin (made by Nitta Gelatin Co., Ltd.) was added and the mixture was allowed to stand at 4° C. overnight to block the plate. The blocking solution was removed by absorption, and the plate was dried by a vacuum dryer, put in an aluminum bag, and after sealing the bag, kept at 4° C. for the following assay.
Sera of patients of periodontal disease (n=3) and normal subjects (n=3) were used as samples, and each serum was diluted 100 times with PBS containing 10% bovine serum. 100 μl portions of these dilutions were added to the plates coated with various antigens, respectively, and incubation was conducted at 37° C. for 1 hour. Each plate was washed three times with 200 μl of PBST using the washer, 100 μl of a commercially available […] (diluted 10^3 times)/0.1% Casein/PBST was added as a secondary antibody, and incubation was conducted again at 37° C. for 1 hour. The plate was washed in the same manner as above, 100 μl of an o-phenylenediamine solution was added, incubation was conducted at 37° C. for 30 minutes, 100 μl of 0.1 N sulfuric acid was added to stop the reaction, and then, absorbance (405 nm) was measured by a microplate reader (made by Bio-Rad Laboratories) using the reaction well of no addition of the specimen as a control. The measures values are average absorbances of 3 specimens each of the patient group of periodontal disease and the normal subject group.

Porphyomonas gingivalis = type: in vivo, guinea pig; details: with FCA; for Degree of redness Longest length × shortest length: 500 μg/animal, inoculation on the 28th day, 24 hours later; for Inhibition rate: relative to the FIA inoculation group
Experimental: Each peptide synthesized in Example 2 was administered together with FIA (Freund's incomplete adjuvant) or FCA (Freund's complete adjuvant), as a water-in-oil type emulsifier, into the sole of the right hind leg of a guinea pig in an amount of 500 μg/animal/time. Thereafter, on the 28th day, 200 μl of a suspension of 10^11 cells/ml of the bacterium was intracutaneously inoculated into the right flank of the same guinea pig after the hair at the region was shaved. 24 hours later, the longest length and shortest length of the resultant red coloring were measured, and the product of them was calculated. From the product was calculated the inhibition rate.

[2] = tested on: fimbrial protein of Porphyomonas gingivalis; test: Immunization of mice with the peptides: antibody titer in serum or saliva by ELISA; type: in vivo; details: A405 value by the ELISA method, with FCA, 4 weeks later
Experimental: (§1) Each peptide synthesized in Example 2 was dissolved in PBS so as to make the concentration 200 μg/ml, the solution was mixed with the same volume of FCA, and the mixture after emulsification was subcutaneously injected into mice at the back (3 animals per group). 4 weeks later, the antibody titer in the serum or saliva against the peptide was assayed by an ELISA method.
The fimbrial protein of Porphyomonas gingivalis was adsorbed on each well of a 96-well microtiter plate for ELISA, and a dilution of the serum with PBS (1/10^5), a dilution of the saliva with PBS (1/500), or a solution obtained by adding each peptide or the fimbrial protein of Porphyomonas gingivalis is to the dilution of the serum or saliva to cause absorption was put in the well. Reaction was conducted at 37° C. for 1 hour, and then assay was conducted by a usual ELISA method.

[3] = Immunization of mice with the peptides: body weight; type: in vivo; details: mice immunized with FCA emulsion, 3 animals per group
Experimental: as §1

## DANYLTGSLT [Comparative peptide, reference compound]
[1]
  Antibody titer, Normal subject group: 0.145
  Antibody titer, Patient group with peridontal disease: 0.196

## LCVYGKLQKN [Comparative peptide, reference compound]
[1]
  Antibody titer, Normal subject group: 0.213
  Antibody titer, Patient group with peridontal disease: 0.182

## NHIENDPLKI [Comparative peptide, reference compound]
[1]
  Antibody titer, Normal subject group: 0.201
  Antibody titer, Patient group with peridontal disease: 0.205

## Peptide 2: synthetic peptide, epitope of the 41 kD fimbrial subunit protein of Porphyomonas gingivalis; sequence in Table 1, not shown (EVKALTTELT)
[1]
  Antibody titer, Normal subject group: 0.205
  Antibody titer, Patient group with peridontal disease: 0.566
Porphyomonas gingivalis
  Degree of redness Longest length × shortest length: 1179 mm^2
  Inhibition rate: 39.5%
[2]
  Antibody titer Saliva (1/500) After absorption: 0.17
  Antibody titer Saliva (1/500) Before absorption: 0.36
  Antibody titer Serum (1/10^5) After absorption: 0.15
  Antibody titer Serum (1/10^5) Before absorption: 0.34
[3]
  Body weight (Average g): 26 g

## Peptide 3: synthetic peptide, epitope of the 41 kD fimbrial subunit protein of Porphyomonas gingivalis; sequence in Table 1, not shown (AENQEAAGLI)
[1]
  Antibody titer, Normal subject group: 0.214
  Antibody titer, Patient group with peridontal disease: 0.623
Porphyomonas gingivalis
  Degree of redness Longest length × shortest length: 1155 mm^2
  Inhibition rate: 40.7%
[2]
  Antibody titer Saliva (1/500) After absorption: 0.09
  Antibody titer Saliva (1/500) Before absorption: 0.37
  Antibody titer Serum (1/10^5) After absorption: 0.16
  Antibody titer Serum (1/10^5) Before absorption: 0.38
[3]
  Body weight (Average g): 26 g

## Peptide 4: synthetic peptide, epitope of the 41 kD fimbrial subunit protein of Porphyomonas gingivalis; sequence in Table 1, not shown (AAGLIMTAEP)
[1]
  Antibody titer, Normal subject group: 0.197
  Antibody titer, Patient group with peridontal disease: 0.941
Porphyomonas gingivalis
  Degree of redness Longest length × shortest length: 851 mm^2
  Inhibition rate: 56.3%
[2]
  Antibody titer Saliva (1/500) After absorption: 0.12
  Antibody titer Saliva (1/500) Before absorption: 0.49
  Antibody titer Serum (1/10^5) After absorption: 0.13
  Antibody titer Serum (1/10^5) Before absorption: 0.52
[3]
  Body weight (Average g): 27 g

## Peptide 5: synthetic peptide, epitope of the 41 kD fimbrial subunit protein of Porphyomonas gingivalis; sequence in Table 1, not shown (TGSLTTFNGA)
[1]
  Antibody titer, Normal subject group: 0.165
  Antibody titer, Patient group with peridontal disease: 0.760
Porphyomonas gingivalis
  Degree of redness Longest length × shortest length: 1063 mm^2
  Inhibition rate: 45.4%
[2]
  Antibody titer Saliva (1/500) After absorption: 0.15
  Antibody titer Saliva (1/500) Before absorption: 0.42
  Antibody titer Serum (1/10^5) After absorption: 0.11
  Antibody titer Serum (1/10^5) Before absorption: 0.45
[3]
  Body weight (Average g): 28 g

## Peptide 6: synthetic peptide, epitope of the 41 kD fimbrial subunit protein of Porphyomonas gingivalis; sequence in Table 1, not shown (TFNGAYTPAN)
[1]
  Antibody titer, Normal subject group: 0.141
  Antibody titer, Patient group with peridontal disease: 0.675
Porphyomonas gingivalis
  Degree of redness Longest length × shortest length: 1112 mm^2
  Inhibition rate: 42.9%
[2]
  Antibody titer Saliva (1/500) After absorption: 0.11
  Antibody titer Saliva (1/500) Before absorption: 0.39
  Antibody titer Serum (1/10^5) After absorption: 0.12
  Antibody titer Serum (1/10^5) Before absorption: 0.41
[3]
  Body weight (Average g): 26 g

## Peptide 8: synthetic peptide, epitope of the 41 kD fimbrial subunit protein of Porphyomonas gingivalis; sequence in Table 1, not shown (ANGGTIHPTI)
[1]
  Antibody titer, Normal subject group: 0.182
  Antibody titer, Patient group with peridontal disease: 0.935
Porphyomonas gingivalis
  Degree of redness Longest length × shortest length: 1022 mm^2
  Inhibition rate: 47.5%
[2]
  Antibody titer Saliva (1/500) After absorption: 0.14
  Antibody titer Saliva (1/500) Before absorption: 0.45
  Antibody titer Serum (1/10^5) After absorption: 0.11
  Antibody titer Serum (1/10^5) Before absorption: 0.49
[3]
  Body weight (Average g): 25 g

## Peptide 9: synthetic peptide, epitope of the 41 kD fimbrial subunit protein of Porphyomonas gingivalis; sequence in Table 1, not shown (EGKTYYPVLV)
[1]
  Antibody titer, Normal subject group: 0.186
  Antibody titer, Patient group with peridontal disease: 0.546
Porphyomonas gingivalis
  Degree of redness Longest length × shortest length: 1265 mm^2
  Inhibition rate: 35.0%
[2]
  Antibody titer Saliva (1/500) After absorption: 0.13
  Antibody titer Saliva (1/500) Before absorption: 0.34
  Antibody titer Serum (1/10^5) After absorption: 0.13
  Antibody titer Serum (1/10^5) Before absorption: 0.32
[3]
  Body weight (Average g): 26 g

## RTLVVMANTG [Comparative peptide, reference compound]
[1]
  Antibody titer, Normal subject group: 0.161
  Antibody titer, Patient group with peridontal disease: 0.199

## VMVYNGEQQE [Comparative peptide, reference compound]
[1]
  Antibody titer, Normal subject group: 0.172
  Antibody titer, Patient group with peridontal disease: 0.165

## WLSRNYVAPA [Comparative peptide, reference compound]
[1]
  Antibody titer, Normal subject group: 0.204
  Antibody titer, Patient group with peridontal disease: 0.210
